Source: patent US11572590B2, “Methods for evaluating tumor cell spheroids using 3D microfluidic cell culture device” (Dana-Farber Cancer Institute, Inc., priority 2017, dated 2023)
Like-named read-outs stand apart in the source and are kept apart here.

Key:
Assay in all cases: SelectScreen Kinase Profiling, single point inhibition and IC50 for off-target kinases
Assay type in all cases: biochemical
[1] = target: off-target kinases (Homo sapiens, UniProt Q92918); settings: MAP4K1 (HPK1), LanthaScreen Binding
[2] = target: T1, off-target kinases (Homo sapiens, UniProt Q8IWQ3); settings: BRSK2, LanthaScreen Binding
T1 sequence (Q8IWQ3 1-736): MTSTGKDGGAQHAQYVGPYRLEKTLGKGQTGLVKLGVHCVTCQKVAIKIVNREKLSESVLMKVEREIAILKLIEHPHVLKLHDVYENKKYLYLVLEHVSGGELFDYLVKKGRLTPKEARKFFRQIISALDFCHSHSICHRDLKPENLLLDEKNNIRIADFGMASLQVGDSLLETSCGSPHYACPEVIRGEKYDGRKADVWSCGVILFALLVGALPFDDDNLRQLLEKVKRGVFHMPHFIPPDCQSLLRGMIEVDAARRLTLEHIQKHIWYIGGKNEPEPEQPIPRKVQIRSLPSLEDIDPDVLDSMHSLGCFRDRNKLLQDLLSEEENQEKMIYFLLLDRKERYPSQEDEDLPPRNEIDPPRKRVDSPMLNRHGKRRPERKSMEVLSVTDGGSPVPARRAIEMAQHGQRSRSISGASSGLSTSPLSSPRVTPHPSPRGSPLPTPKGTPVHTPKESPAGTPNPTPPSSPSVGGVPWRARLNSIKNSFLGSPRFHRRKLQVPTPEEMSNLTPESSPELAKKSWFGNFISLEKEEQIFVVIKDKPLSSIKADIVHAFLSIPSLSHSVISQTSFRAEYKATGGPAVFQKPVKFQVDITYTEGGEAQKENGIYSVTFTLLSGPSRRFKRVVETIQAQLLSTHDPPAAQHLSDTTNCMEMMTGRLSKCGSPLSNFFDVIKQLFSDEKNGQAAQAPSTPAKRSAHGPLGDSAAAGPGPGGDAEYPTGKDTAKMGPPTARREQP

[3] = target: off-target kinases (Homo sapiens, UniProt P00519, Q252H); settings: ABL1 Q252H, LanthaScreen Binding
[4] = target: T2, off-target kinases (Homo sapiens, UniProt O43781); settings: DYRK3, ZLYTE, ATP Km app
T2 sequence (O43781 1-588): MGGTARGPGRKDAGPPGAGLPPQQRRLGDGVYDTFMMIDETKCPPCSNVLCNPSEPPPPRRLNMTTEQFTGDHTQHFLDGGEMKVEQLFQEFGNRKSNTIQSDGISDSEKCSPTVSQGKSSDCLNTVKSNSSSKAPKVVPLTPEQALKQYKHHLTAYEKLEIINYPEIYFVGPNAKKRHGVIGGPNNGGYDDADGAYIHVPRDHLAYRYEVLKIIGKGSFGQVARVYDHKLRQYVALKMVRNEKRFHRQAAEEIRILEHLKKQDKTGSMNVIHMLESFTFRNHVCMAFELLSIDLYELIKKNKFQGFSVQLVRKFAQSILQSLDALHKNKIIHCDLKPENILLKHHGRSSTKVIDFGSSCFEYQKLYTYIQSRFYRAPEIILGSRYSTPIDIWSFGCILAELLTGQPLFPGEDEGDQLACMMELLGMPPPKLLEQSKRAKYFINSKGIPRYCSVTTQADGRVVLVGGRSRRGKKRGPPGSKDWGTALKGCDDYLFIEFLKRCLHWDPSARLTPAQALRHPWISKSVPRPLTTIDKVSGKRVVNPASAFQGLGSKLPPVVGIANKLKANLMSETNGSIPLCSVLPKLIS

[5] = target: off-target kinases (Homo sapiens, UniProt P08631); settings: HCK, ZLYTE, ATP Km app
[6] = target: off-target kinases (Homo sapiens, UniProt Q9H2G2); settings: SLK, LanthaScreen Binding
Sequence of off-target kinases (Homo sapiens, UniProt Q9H2G2) (Q9H2G2 whole entry): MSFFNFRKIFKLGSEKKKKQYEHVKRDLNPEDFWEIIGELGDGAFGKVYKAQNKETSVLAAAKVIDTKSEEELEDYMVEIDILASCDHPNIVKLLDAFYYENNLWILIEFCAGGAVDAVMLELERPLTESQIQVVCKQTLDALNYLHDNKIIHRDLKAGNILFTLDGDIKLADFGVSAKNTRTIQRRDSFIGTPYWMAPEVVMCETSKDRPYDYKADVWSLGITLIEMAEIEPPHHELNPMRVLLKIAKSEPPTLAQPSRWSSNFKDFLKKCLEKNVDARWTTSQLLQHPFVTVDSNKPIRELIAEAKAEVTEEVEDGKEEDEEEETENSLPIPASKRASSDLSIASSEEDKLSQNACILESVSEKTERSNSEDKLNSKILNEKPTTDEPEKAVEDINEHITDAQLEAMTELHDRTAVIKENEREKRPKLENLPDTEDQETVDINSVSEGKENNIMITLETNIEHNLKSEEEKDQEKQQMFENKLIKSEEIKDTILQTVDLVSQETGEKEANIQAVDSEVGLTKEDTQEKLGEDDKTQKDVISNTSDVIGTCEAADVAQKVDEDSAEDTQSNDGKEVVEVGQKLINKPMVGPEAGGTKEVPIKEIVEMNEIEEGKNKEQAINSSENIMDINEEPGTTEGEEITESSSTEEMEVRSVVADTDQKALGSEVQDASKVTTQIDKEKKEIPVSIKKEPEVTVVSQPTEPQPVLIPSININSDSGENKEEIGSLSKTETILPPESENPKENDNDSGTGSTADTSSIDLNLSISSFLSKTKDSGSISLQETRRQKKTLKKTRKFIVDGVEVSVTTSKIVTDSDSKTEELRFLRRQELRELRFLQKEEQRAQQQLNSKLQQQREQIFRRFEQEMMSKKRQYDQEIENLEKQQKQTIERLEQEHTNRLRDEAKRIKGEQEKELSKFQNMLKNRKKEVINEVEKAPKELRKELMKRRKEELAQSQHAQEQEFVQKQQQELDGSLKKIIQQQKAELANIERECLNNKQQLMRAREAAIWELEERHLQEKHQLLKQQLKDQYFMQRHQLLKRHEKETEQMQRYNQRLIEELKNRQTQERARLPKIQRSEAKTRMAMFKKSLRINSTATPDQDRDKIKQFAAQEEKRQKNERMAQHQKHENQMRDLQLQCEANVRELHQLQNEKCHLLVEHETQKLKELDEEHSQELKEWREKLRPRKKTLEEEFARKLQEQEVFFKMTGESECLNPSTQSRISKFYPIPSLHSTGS

Sequence of off-target kinases (Homo sapiens, UniProt P08631) (P08631 whole entry): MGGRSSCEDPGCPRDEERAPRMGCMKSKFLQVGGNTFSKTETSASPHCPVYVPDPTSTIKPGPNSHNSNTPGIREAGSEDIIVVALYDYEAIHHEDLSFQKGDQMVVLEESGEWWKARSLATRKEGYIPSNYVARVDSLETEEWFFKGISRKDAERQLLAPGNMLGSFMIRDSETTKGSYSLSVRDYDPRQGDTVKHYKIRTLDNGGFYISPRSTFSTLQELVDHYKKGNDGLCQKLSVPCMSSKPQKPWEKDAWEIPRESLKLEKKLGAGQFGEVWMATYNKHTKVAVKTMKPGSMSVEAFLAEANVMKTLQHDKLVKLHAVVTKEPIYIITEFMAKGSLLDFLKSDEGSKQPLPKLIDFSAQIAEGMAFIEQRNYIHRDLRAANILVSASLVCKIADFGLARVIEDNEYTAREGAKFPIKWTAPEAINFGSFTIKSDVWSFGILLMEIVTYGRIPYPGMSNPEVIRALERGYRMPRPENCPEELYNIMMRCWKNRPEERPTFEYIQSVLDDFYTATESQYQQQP
Sequence of off-target kinases (Homo sapiens, UniProt Q92918) (Q92918 whole entry): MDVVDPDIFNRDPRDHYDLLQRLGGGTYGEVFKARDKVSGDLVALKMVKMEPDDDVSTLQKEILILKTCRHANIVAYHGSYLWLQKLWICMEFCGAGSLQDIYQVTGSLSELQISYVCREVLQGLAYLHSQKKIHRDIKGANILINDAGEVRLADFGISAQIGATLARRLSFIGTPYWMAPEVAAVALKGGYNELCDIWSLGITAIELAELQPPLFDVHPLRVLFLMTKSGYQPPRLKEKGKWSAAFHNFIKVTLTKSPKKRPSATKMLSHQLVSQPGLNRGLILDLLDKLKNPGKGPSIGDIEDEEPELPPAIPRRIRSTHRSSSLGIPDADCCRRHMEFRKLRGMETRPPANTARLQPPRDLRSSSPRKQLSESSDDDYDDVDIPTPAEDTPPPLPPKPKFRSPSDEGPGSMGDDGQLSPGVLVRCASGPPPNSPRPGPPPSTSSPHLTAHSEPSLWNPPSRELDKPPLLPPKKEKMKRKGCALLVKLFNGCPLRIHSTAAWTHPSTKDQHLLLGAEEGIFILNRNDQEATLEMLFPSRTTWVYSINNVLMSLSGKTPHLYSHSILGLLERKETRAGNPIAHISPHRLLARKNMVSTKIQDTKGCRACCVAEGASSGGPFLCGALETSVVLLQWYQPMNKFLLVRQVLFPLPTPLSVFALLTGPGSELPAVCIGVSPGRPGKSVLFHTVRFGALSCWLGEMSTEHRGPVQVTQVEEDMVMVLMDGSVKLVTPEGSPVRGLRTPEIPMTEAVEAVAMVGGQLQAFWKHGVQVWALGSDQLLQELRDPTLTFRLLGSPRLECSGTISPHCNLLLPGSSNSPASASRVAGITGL

Work on N#Cc1cc(-c2ncnc(Nc3ccc(N4CCN(C5COC5)CC4)cc3)n2)ccc1OC1CCOCC1 [Compound 1, 5-(4-((4-(4-(oxetan-3-yl)piperazin-1-yl)phenyl)amino)-1,3,5-triazin-2-yl)-2-((tetrahydro-2H-pyran-4-yl)oxy)benzonitrile] yielded an inhibition ([1]; read-out: % Inhibition 1) of 59%, an inhibition ([1]; read-out: % Inhibition 2) of 55% and an inhibition ([1]; read-out: % Inhibition Avg) of 57%. For the same molecule, the inhibition ([2]; read-out: % Inhibition 1) was 16%, the inhibition ([2]; read-out: % Inhibition 2) was 17% and the inhibition ([2]; read-out: % Inhibition Avg) was 17%. The inhibition ([3]; read-out: % Inhibition 1) was 52%, the inhibition ([3]; read-out: % Inhibition 2) was 41% and the inhibition ([3]; read-out: % Inhibition Avg) was 46%. For the same molecule, the inhibition ([4]; read-out: % Inhibition 1) was 26%, the inhibition ([4]; read-out: % Inhibition 2) was 24% and the inhibition ([4]; read-out: % Inhibition Avg) was 25%. The inhibition ([5]; read-out: % Inhibition 1) was 26%, the inhibition ([5]; read-out: % Inhibition 2) was 28% and the inhibition ([5]; read-out: % Inhibition Avg) was 27%. It also gave an inhibition ([6]; read-out: % Inhibition 1) of 29%, an inhibition ([6]; read-out: % Inhibition 2) of 32% and an inhibition ([6]; read-out: % Inhibition Avg) of 30%.
